pIC50: −log10 of the molar value.
Tests used:
[1] = tested on: Aβtotal; test: Screening for γ-secretase-modulating activity, Method 2: Aβtotal Alphalisa in supernatant of SKNBE2 cells carrying APP 695 wild type (Table 12c); assay type: cell-based; conditions: Method 2, Table 12c, incubated overnight
Protocol: (§1) Screening was carried out using SKNBE2 cells carrying the APP 695—wild type, grown in Dulbecco's Modified Eagle's Medium/Nutrient mixture F-12 (DMEM/NUT-mix F-12) (HAM) provided by Invitrogen (cat no. 10371-029) containing 5% Serum/Fe supplemented with 1% non-essential amino acids, 1-glutamine 2 mM, Hepes 15 mM, penicillin 50 U/ml (units/ml) en streptomycin 50 μg/ml. Cells were grown to near confluency.
(§2) The screening was performed using a modification of the assay as described in Citron et al (1997) Nature Medicine 3: 67. Briefly, cells were plated in a 384-well plate at 10^4 cells/well in Ultraculture (Lonza, BE12-725F) supplemented with 1% glutamine (Invitrogen, 25030-024), 1% non-essential amino acid (NEAA), penicillin 50 U/ml en streptomycin 50 μg/ml in the presence of test compound at different test concentrations. The cell/compound mixture was incubated overnight at 37° C., 5% CO2, The next day the media were assayed by two sandwich immuno-assays, for Aβ42 and Aβtotal.
(§3) Aβtotal and Aβ42 concentrations were quantified in the cell supernatant using the Aphalisa technology (Perkin Elmer). Alphalisa is a sandwich assay using biotinylated antibody attached to streptavidin coated donorbeads and antibody conjugated to acceptor beads. In the presence of antigen, the beads come into close proximity. The excitation of the donor beads provokes the release of singlet oxygen molecules that trigger a cascade of energy transfer in the acceptor beads, resulting in light emission. To quantify the amount of Aβ42 in the cell supernatant, monoclonal antibody specific to the C-terminus of Aβ42 (JRF/cAβ42/26) was coupled to the receptor beads and biotinylated antibody specific to the N-terminus of Aβ (JRF/AβN/25) was used to react with the donor beads. To quantify the amount of Aβtotal in the cell supernatant, monoclonal antibody specific to the N-terminus of Aβ (JRF/AβN/25) was coupled to the receptor beads and biotinylated antibody specific to the mid region of Aβ (biotinylated 4G8) was used to react with the donor beads.
(§4) To obtain the values reported in Table 12c, the data are calculated as percentage of the maximum amount of amyloid Beta 42 measured in the absence of the test compound. The sigmoidal dose response curves were analyzed using non-linear regression analysis with percentage of the control plotted against the log concentration of the compound. A 4-parameter equation was used to determine the IC50.

[2] = tested on: Aβ42; test: Screening for γ-secretase-modulating activity, Method 2: Aβ42 Alphalisa in supernatant of SKNBE2 cells carrying APP 695 wild type (Table 12c); assay type: cell-based; conditions: Method 2, Table 12c, incubated overnight
Protocol: as §1, §2, §3, §4

Row | SMILES | pIC50 [1] | pIC50 [2] | pIC50 ([1]; Homo sapiens) | pIC50 ([2]; Homo sapiens)
1 | COc1cc(Nc2cc(Cl)nn3cc(C)nc23)ccc1-n1cnc(C)c1 [Compound 165] | < 5.00 | 6.75 | – | –
2 | Cc1cn(-c2ccc(Nc3cc(Cl)nn4cc(-c5cc(F)ccc5C)nc34)cc2F)cn1 [Compound 169] | 5.10 | 6.38 | – | –
3 | COc1cc(Nc2cccn3cc(C(=O)N(C)C)nc23)ccc1-n1cnc(C)c1 [Compound 123] | < 5.00 | 5.27 | – | –
4 | CCC(=O)c1cn2cccc(Nc3ccc(-n4cnc(C)c4)c(OC)c3)c2n1 [Compound 117] | – | – | < 5.00 | 6.48
5 | COc1cc(Nc2cccn3cc(C(C)(C)O)nc23)ccc1-n1cnc(C)c1 [Compound 121] | < 5.00 | 5.88 | – | –
6 | C=C(C)c1cc(Nc2ccc(-n3cnc(C)c3)c(OC)n2)c2nc(-c3ccccc3Cl)cn2n1 [Compound 171] | – | – | 5.08 | 6.27
7 | COCc1c(-c2ccccc2)nc2c(Nc3ccc(-n4cnc(C)c4)c(F)c3)cccn12 [Compound 104] | 5.14 | 7.54 | – | –
8 | CCCCc1cn2cccc(Nc3ccc(-n4cnc(C)c4)c(OC)c3)c2n1 [Compound 69] | < 5.00 | 7.34 | – | –
9 | COCCOCCOCC(=O)NCc1ccc(C)c(-c2cn3cccc(Nc4ccc(-n5cnc(C)c5)c(OC)c4)c3n2)c1 [Compound 114] | – | – | 5.44 | 6.82
10 | COc1cc(Nc2cccn3cc(-c4cc(CN)ccc4C)nc23)ccc1-n1cnc(C)c1 [Compound 107] | – | – | 5.69 | 7.32
11 | COc1nc(Nc2cccn3cc(CC(F)(F)F)nc23)ccc1-n1cnc(C)c1 [Compound 179] | – | – | < 5.00 | 7.11
12 | CCC(=O)NCc1ccc(C)c(-c2cn3cccc(Nc4ccc(-n5cnc(C)c5)c(OC)c4)c3n2)c1 [Compound 111] | – | – | 5.26 | 7.19
13 | COc1cc(Nc2cc(Cl)nn3cc(-c4cc(F)ccc4C)nc23)ccc1-n1cnc(C)n1 [Compound 162] | < 5.00 | 6.86 | – | –
14 | COc1cc(Nc2cccn3cc(C(O)C(F)(F)F)nc23)ccc1-n1cnc(C)c1 (stereo not drawn) [Compound 110] | < 5.00 | 6.89 | – | –
15 | COc1nc(Nc2cccn3c(OC)c(-c4ccc(F)cc4)nc23)ccc1-n1cnc(C)c1 [Compound 141] | < 5.00 | 7.89 | – | –
16 | COc1nc(Nc2cc(F)cn3cc(CC(C)C)nc23)ccc1-n1cnc(C)c1 [Compound 142] | 5.18 | 7.51 | – | –
17 | COc1cc(Nc2cc(C(C)C)nn3cc(C)nc23)ccc1-n1cnc(C)c1 [Compound 160] | < 5.00 | 7.06 | – | –
18 | Cc1cn(-c2ccc(Nc3cc(F)cn4cc(-c5ccc(F)cc5C)nc34)cc2F)cn1 [Compound 148] | < 5.00 | 7.37 | – | –
19 | COc1cc(Nc2cc(C(F)(F)F)nn3cc(C4CCOCC4)nc23)ccc1-n1cnc(C)c1 [Compound 158] | 5.05 | 7.15 | – | –
20 | COCc1c(-c2ccccc2Cl)nc2c(Nc3ccc(-n4cnc(C)c4)c(OC)n3)cccn12 [Compound 140] | 5.39 | 8.22 | – | –
21 | COc1nc(Nc2cccn3cc(CC(F)(F)F)nc23)ccc1-n1cnc(C)n1 [Compound 180] | 5.20 | 6.25 | – | –
22 | COc1cc(Nc2ccnn3cc(-c4cc(F)ccc4C)nc23)ccc1-n1cnc(C)c1 [Compound 159] | – | – | 5.32 | 7.26
23 | COc1nc(Nc2cccn3c(C)c(-c4ccccc4Cl)nc23)ccc1-n1cnc(C)c1 [Compound 139] | 5.37 | 8.30 | – | –
24 | Cc1cn(-c2ccc(Nc3ccnn4cc(-c5cc(F)ccc5C)nc34)cc2F)cn1 [Compound 166] | < 5.00 | 6.60 | – | –
25 | COc1cc(Nc2cccn3cc(C(=O)OC(C)(C)C)nc23)ccc1-n1cnc(C)c1 [Compound 106] | 5.34 | 7.47 | – | –
26 | COc1cc(Nc2nccn3cc(-c4ccc(F)cc4)nc23)ccc1-n1cnc(C)n1 [Compound 178] | < 5.00 | 6.42 | – | –
27 | COc1cc(Nc2cc(C3CCOCC3)nn3cc(C)nc23)ccc1-n1cnc(C)c1 [Compound 170] | < 5.00 | 6.35 | – | –

— US8546440B2, “Substituted bicyclic imidazole derivatives as gamma secretase modulators” (Janssen Pharmaceuticals, Inc., priority 2008, dated 2013)
